# Measurements from US7582424B2 (priority 2000, dated 2009).
# Assays:
# [1] = tested on: T84 cell monolayers; type: cell-based, human
# [2] = tested on: cAMP; type: cell-based
# [3] = tested on: cGMP; type: cell-based
# [4] = tested on: Ace-induced Isc response by T84 cell monolayers; test: cells; type: cell-based, human
# [5] = tested on: ACE-stimulated Isc in 16HBE14o- cell monolayers; type: cell-based, human
# [6] = tested on: chloride secretion; conditions: cited from earlier work
# [7] = tested on: polarized T84 cells; conditions: cited from earlier work
compound,measurement,setting,value
C[N+](C)(C)CCOC(N)=O [carbachol],effect of carbachol pretreatment on thapsigargin-induced chloride secretion (Isc response),[1],blocks
same,"peak Isc, agent alone",[1],9.8±1.1 μAmp/cm^2
same,return of Isc nearly to baseline,[1],≤ 10 min
same,"time of peak Isc, agent alone",[1],4 min
same,effect on cellular cAMP,[2],no significant effect
same,effect on cellular cGMP,[3],no significant effect
ω-conotoxin,effect on Ace-induced Isc response,[4],no significant effect
NPPB,decrease in ACE-stimulated Isc,[5],~80%
CCCCNc1cc(C(=O)O)cc(S(N)(=O)=O)c1Oc1ccccc1 [bumetanide],effect by itself on Isc or PD,[1],no effect
same,effect on Ace action when added after Ace,[4],reverses
same,inhibition at 100 µM,"[4]; Homo sapiens, T84, read-out: inhibition of the action of Ace (Isc)",~60%
COc1ccc(CCN(C)CCCC(C#N)(c2ccc(OC)c(OC)c2)C(C)C)cc1OC (centres unmarked) [verapamil],effect on Ace-induced Isc response,[4],no significant effect
Clc1ccccc1C(c1ccccc1)(c1ccccc1)n1ccnc1 [clotrimazole],inhibition of carbachol-dependent secretion,[6],84%
same,reduction in Ace-stimulated Isc,[4],92%
C/C=C(/C)C(=O)O[C@H]1C(C)=C2[C@H]([C@@H]1OC(=O)CCCCCCC)[C@@](C)(OC(C)=O)C[C@H](OC(=O)CCC)[C@@]1(O)[C@H]2OC(=O)[C@@]1(C)O [thapsigargin],"mean peak Isc, agent alone",[1],10.2±4.3
C=C[C@@]1(C)CC(=O)[C@]2(O)[C@@]3(C)[C@@H](O)CCC(C)(C)[C@@H]3[C@H](O)[C@H](OC(C)=O)[C@@]2(C)O1 [forskolin],"mean peak Isc, forskolin followed by carbachol",[1],69.3±2.4 μAmps/cm^2
same,"predicted additive effect, forskolin and carbachol, mean peak Isc",[1],49.0±2.9
same,effect on cellular cGMP,[3],no effect
"CC(=O)OCOC(=O)CN(CC(=O)OCOC(C)=O)c1ccccc1OCCOc1ccccc1N(CC(=O)OCOC(C)=O)CC(=O)OCOC(C)=O [BAPTA, 1,2-bis(2-aminophenoxy)ethane-N,N,N′,N′-tetraacetic acid (BAPTA)-AM]",effect on Ace-induced Isc,[4],near ablation
C[C@@H]1O[C@@H](O[C@H]2C[C@@H](O)[C@]3(CO)[C@H]4[C@H](O)C[C@]5(C)[C@@H](C6=CC(=O)OC6)CC[C@]5(O)[C@@H]4CC[C@]3(O)C2)[C@H](O)[C@H](O)[C@H]1O [ouabain],effect on Ace-induced Isc,[4],inhibits and reverses
O=C1CN(/N=C/c2ccc(-c3ccc([N+](=O)[O-])cc3)o2)C(O)=N1 [dantrolene],inhibition at 50 µM,"[4]; Homo sapiens, T84, read-out: inhibition of Ace-induced Isc response",~70%
"O=S(=O)(O)c1cc(N=C=S)ccc1C=Cc1ccc(N=C=S)cc1S(=O)(=O)O.[Na] [DIDS, 4,4′-diisothiocyanostilbene-2,2′-disulfonic acid, sodium]",decrease in ACE-stimulated Isc,[5],40%
same,inhibition of forskolin-induced Isc response,[7],40%
same,inhibition of thapsigargin-induced Isc response,[7],100%
same,inhibition at 500 µM,"[4]; Homo sapiens, T84, read-out: inhibition of the Ace-induced Isc response",50%
O=c1c(-c2ccc(O)cc2)coc2cc(O)cc(O)c12 [genistein],effect on the Isc response to Ace,[4],no effect
